Laboratory results reported in patent US10105425B2, “Isolated donor MHC-derived peptide and uses thereof” (INSERM (INSTITUT NATIONAL DE LA SANTÉ ET DE LA RECHERCHE …, priority 2014, dated 2018).

How the values were obtained:
CD8^+CD40Ig Tregs = assay: MLR coculture: CD25 activation of CD8+CD40Ig Tregs with syngeneic pDCs and allogeneic peptides; assay type: cell-based, rat; settings: for upregulation of CD25 expression, fold vs. no peptide: 6 days culture, matured syngeneic pDCs, 120 μg/ml peptide
Method: (§1) For MLR coculture assays, pDCs from LEW.1A naive rats (1.25×10^4 cells), syngeneic CD8^+CD40Ig Tregs (5×10^4 cells) and 120 μg/ml of allogeneic peptides were plated in triplicate in 200 μl of complete RPMI-1640 medium in round-bottom 96 wells plates for 6 days at 37° C., 5% CO2. pDCs were matured with 0.5 μM of CpG ODN 1826.
(§2) Proliferation of CFSE-labeled naive CD4^+CD25^− T cells and phenotype of CD8^+CD45RC^low Tregs were analyzed by flow cytometry on a FACSCanto II cytometer (BD Biosciences, Mountain View, Calif.) after gating on TCR^+CD4^+ cells or TCR^+CD8^+ cells among live cells (DAPI negative).
For extracellular staining, cells were stained with the following mAbs: anti-TCRαβ (R73, Alexa Fluor 647-conjugated), anti-CD8α (OX8, PE-Cy7-conjugated, ebiosciences), anti-CD4 (W3.25, PE-Cy7-conjugated), anti-CD45RC (OX22, FITC-conjugated), anti-CD28 (JJ319, biotin-labeled), anti-CD71 (OX26, biotin-labeled), anti-mouse Vb11 (KT11, biotin-labeled, AbD Serotec) anti-CD25 (OX39, biotin-labeled) and anti-MHC-II (OX6, biotin-labeled).
(§3) All biotinylated mAbs were visualized using Streptavidin-PerCP.Cy5.5 (BD Biosciences). A FACSCanto II cytofluorimeter (BD Biosciences, Mountain View, Calif.) was used to measure fluorescence, and data were analyzed using FlowJo software (Tree Star, Inc. USA, version 7.6.5). Cells were first gated by their morphology and dead cells excluded by selecting DAPI negative viable cells.

[1] = system: heart allograft in LEW.1A recipients; assay: Cardiac allotransplantation with in vivo peptide treatment; parameters: species or system rat; settings: for allograft survival: five i.v injections of 500 μg peptide, LEW.1W into LEW.1A, n=4
Method: Allotransplantations of heart were performed between whole MHC incompatible LEW.1W (RT1.A^u as donors) and LEW.1A (RT1.A^a as recipients) male rats as previously described (5). The experiments were approved by the regional ethical committee for animal experimentation.
16-mer peptides were dissolved in 0.4% DMSO/PBS before injection. For the first protocol, single doses of peptide (500 μg/injection) were injected i.v at different time points before and after transplantation at day −6, −3, 0 +3 and +7 into grafted LEW.1A recipients. In the second protocol, mini osmotic pumps (ALZET, Cupertino, Calif., USA) were implanted intraperitoneally (i.p) in recipients and delivered continuously either 20.83 or 41.66 μg/hour of 16-mer peptides for 14 days. A first pump was implanted on day −7 before transplantation and was replaced by a second one at day +7, allowing delivery of 14 or 28 mg of peptide per animal for 28 consecutive days. A depleting anti-CD8α mAb (OX8, IgG1, 3 mg/kg) or an anti-MHC class Ia and Ib mAb (OX18, 3 mg/kg) were injected i.p. twice a week from day −7 until rejection. Allografts were monitored daily by palpation and allograft rejection was defined as complete cessation of palpable heart beat.

[2] = system: CD8^+CD40Ig Tregs and pDCs; assay: Cytokine ELISA in coculture supernatants after peptide stimulation; assay type: cell-based, rat; settings: 6 days peptide stimulation with pDCs, supernatant
Method: as §1
IFNγ, IL-10 were measured in coculture supernatants using ELISA from BD Biosciences OptEIA, IL-12 and TGFβ using ELISA from Invitrogen and R&D System respectively.

CD4^+CD25^− T cells = assay: Direct MLR suppressive assay (CFSE proliferation); assay type: cell-based, rat
Method: For direct MLR suppressive assays, sorted CFSE-labeled CD4^+CD25^− T cells from LEW.1A origin (5×10^4 cells) and allogeneic pDCs isolated from donor LEW.1W animals (1.25×10^4 cells) were plated in triplicate for 6 days in a final volume of 200 μl of completed RPMI-1640 medium in round-bottom 96 wells plates with FACS-sorted freshly purified naive CD8^+CD45RC^low Treg cells, peptide-expanded CD8^+CD40Ig Treg cells (5×10^4 cells), Du51 tetramer^+ or ^− CD8^+CD40Ig Tregs. For indirect MLR suppressive assay, splenocytes isolated from donor LEW.1W animals were frozen-thawed to induce apoptosis. Apoptotic cells were then cultured overnight with pDCs isolated from recipient LEW.1A animals (8:1 ratio) at 0.65×10^6 pDCs/mL. Alloantigens-loaded pDCs were finally washed and plated as described before for the direct MLR.
as §2

cardiac grafts = assay: Morphometric analysis of cardiac grafts (chronic rejection); assay type: in vivo, rat; settings: long-term surviving Du51-treated recipients
Method: The upper third of the graft was fixed in paraformaldehyde and embedded in paraffin. Five μm coronal sections were stained with hematoxylin-eosine-safron. Tissues were analyzed by a pathologist (K.R.) blinded to the groups and chronic rejection was evaluated as previously described (63).

[3] = system: donor-specific alloantibodies; assay: Donor specific alloantibody detection by cytofluorimetry; assay type: in vivo, rat; settings: long-term surviving Du51-treated recipients vs untreated or early rejecting
Method: Alloantibodies were analyzed by cytofluorimetry as described elsewhere (28). Briefly, after digestion by collagenase D and red blood cell lysis, allogeneic spleen cells were incubated with diluted (1/8) heat-inactivated serum, and then with FITC-conjugated goat anti-rat IgG antibodies (H+L chain specific) (Jackson Laboratories), a mouse anti-rat IgG1 MAb (MCA 194, Serotec), IgG2a (MCA 278, Serotec) or IgG2b (MCA 195, Serotec). […] Cells were analyzed using a FACS Canto II cytofluorimeter (BD Biosciences, Mountain View, Calif.) and the results were expressed as mean channel fluorescence for each serum.

CD8^+CD45RC^low Tregs = assay: Spleen cell populations by flow cytometry after peptide treatment; assay type: in vivo, rat; settings: long-term surviving Du51-treated recipients
Method: as §3
Tetramerization of RT1.A^a/Du51 was performed at room temperature by addition of streptavidin-PE (Jackson ImmunoResearch) or streptavidin-APC (BD Biosciences) at a 4:1-molar ratio, in four equal aliquots added at 15-min intervals. Likewise, the control tetramer RT1.A^a/MTF-E (ILFPSSERLISNR) was conjugated to streptavidin-BV421 (Biolegend) and represented 1.6+/−0.7% of non-specific staining among Du51-specific cells. These three reagents were mixed and added to plated cells at 10 μg/mL for 1 hour at 4° C. Cells were further stained for CD8 and CD45RC and fluorescence was analyzed on a FACSCanto II cytometer (BD Biosciences, Mountain View, Calif.). Cells were first gated by their morphology and dead cells excluded by selecting DAPI negative cells.

[4] = system: CD4^+ and CD8^+ T cells isolated from rejected untreated animals; settings: unmodified LEW.1A recipients, LEW.1W into LEW.1A; cited from earlier work
[5] = system: heart allograft in irradiated LEW.1A recipients; assay: Adoptive transfer of splenocytes from Du51-treated long-surviving recipients
Description: Total splenocytes (1.5·10^8 cells) were adoptively transferred i.v. the day before heart transplantation into naive LEW-1A recipients that had received 4.5 Gy of whole-body irradiation the same day. Recipients received splenocytes from Du51-treated rats (defined as 1st spl-transferred) or from naive rats (naive spl-transferred) or no cells (untreated irradiated).

[6] = after 6 days of peptide stimulation

With “YLRYDSDVGEYRAVTE [Bu31, sub-dominant peptide from donor MHC class II RT1.B^u]” the “upregulation of CD25 expression, fold vs. no peptide” value (from here on “upregulation … fold vs. no peptide”) (CD8^+CD40Ig Tregs) was 1.67±0.09 fold and the allograft survival [1] was 11 days.
For “REEYARFDSDVGEYR (Synthetic 15-mer peptide 51-18)”, the “upregulation … fold vs. no peptide” value (CD8^+CD40Ig Tregs) was 2.04±0.3 fold and the “activation / recognition by CD8+CD40Ig Tregs (CD25), in words” value (CD8^+CD40Ig Tregs; coculture with matured syngeneic pDCs, 6 days) was “not significantly different from that induced by Du51”.
In the case of “NREEYARFDSDVGEYR (Synthetic Dominant peptide Du51)”, the “upregulation … fold vs. no peptide” value (CD8^+CD40Ig Tregs) is reported as 2.07±0.18 fold, the CD28 expression (CD8^+CD40Ig Tregs; [6]) is reported as “upregulation” and the CD71 expression (CD8^+CD40Ig Tregs; [6]) is reported as “upregulation”. The Foxp3 expression (CD8^+CD40Ig Tregs; [6]) was “no modification”, the “MHC class II expression” value (CD8^+CD40Ig Tregs; [6]) was “upregulation” and the IFNγ expression [2] was “significant increased expression”. The IL-10 expression [2] was “no modification”, the IL-12 production [2] was “decreased” and the TGFβ expression [2] was “no modification”. The “ex vivo suppressive activity of peptide-induced CD8+CD45RClow Tregs” value (CD4^+CD25^− T cells; Tregs from Du51-treated recipients) was “efficiently inhibit effector CD4^+ T cell proliferation”, the “proliferation of effector T cells with peptide-stimulated Tregs” value (CD4^+CD25^− T cells; Tregs stimulated 6 days with peptide, compared to non-activating peptide) was “significant inhibition” and the allograft survival [1] was 9.5 days. For the same sequence, the indefinite allograft survival ([1]; i.p. mini-osmotic pumps 20.8 μg peptide per hour for 28 days from day -7) was 25%, the “indefinite allograft survival, recipients” value ([1]; osmotic pump 41.6 μg peptide per hour, LEW.1W donor hearts) was 80% and the “rejection of Brown Norway (BN) third party grafts, day after transplantation” value ([1]; osmotic pump 41.6 μg per hour, BN/LEW.1A) was 7 days. The “signs of chronic rejection in graft” value (cardiac grafts) was “no signs of chronic rejection”, the “total IgG, IgG1, IgG2a and IgG2b alloantibodies production” value [3] was “total inhibition” and the “percentage and absolute number of total CD8+ T cells, in particular CD8+CD45RClow Tregs in spleen” value (CD8^+CD45RC^low Tregs) was “trend for an increase”. For the same sequence, the “tetramer-positive Du51-specific Tregs in spleen” value (CD8^+CD45RC^low Tregs) was “trend for an increase”, the “involvement in acute rejection of grafts” value [4] was “not involved in acute rejection” and the “recipients with significant prolongation of allograft survival” value ([5]; 150·10^6 splenocytes from recipients treated with 1 mg/day Du51, irradiated secondary recipients) was 50%. For the same sequence, the “anatomopathological status of graft” value ([5]; first adoptively transferred long term recipients) was “complete absence of vascular lesions and obstructions” and the “total IgG, IgG1 and IgG2b alloantibodies production” value ([5]; first adoptively transferred long-term recipients vs untreated) was “total inhibition”.
